The values that follow come from patent US12281079B2, “Quinoline derivatives, processes for their preparation and uses thereof for the treatment of cancer” (Lead Discovery Center GmbH, priority 2019, dated 2025).

For assay [1], the target named is mitochondrial RNA polymerase (POLRMT) (Mus musculus, UniProt Q8BKF1). Description: Homogeneous TR-FRET assay for mitochondrial transcription activity. It counts as biochemical. The conditions noted are these: homogeneous TR-FRET assay according to Example 4. The source says:
The TR-FRET assay was basically conducted as described in WO2016/193231A1, especially as described in example 1 (hereby incorporated by reference). With respect to the back ground of the mitochondrial transcription it is referred to Falkenberg et al. (2002) and Posse et al. (Posse et al., 2015). The method monitors the activity of mitochondrial RNA-polymerase via detection of the formation of its product, a 407 bp long RNA sequence. Detection of the product is facilitated by hybridization of two DNA-oligonucleotide probes to specific and adjacent sequences within the RNA product sequence. Upon annealing of the probes, two fluorophores that are coupled directly to an acceptor nucleotide probe (ATT0647, 5′) or introduced via a coupled streptavidin interacting with a biotinylated donor nucleotide probe on the other side (Europium cryptate, 3′) are brought into sufficient proximity to serve as a fluorescence-donor-acceptor pair as generally described in Walters and Namchuk (2003). Thus, a FRET signal at 665 nm is generated upon excitation at 340 nm.
Briefly, the protocol described here was applied for screening and activity determination in a low-volume 384-well microtiter plate with non-binding surface. For high-throughput application in the 1536-well microtiter plate format, volumes of the reagent mixes were adjusted, maintaining the volumetric ratio. Proteins POLRMT (NM_172551.3), TFAM (NM_009360.4) and TFB2M (NM_008249.4) were diluted from their stocks to working concentrations of 150 nM, 1.8 μM and 330 nM respectively, in a dilution buffer containing 100 mM Tris-HCl pH 8.0, 200 mM NaCl, 10% (v/v) glycerole, 2 mM glutathione (GSH), 0.5 mM EDTA and 0.1 mg/mL BSA. Protein dilutions and template DNA, comprising a pUC18 plasmid encoding the mitochondrial light strand promoter, restriction linearized proximal to the promoter 3′-end (pUC-LSP), were mixed at the twofold final assay-concentration in a reaction buffer, containing 10 mM Tris-HCl pH 7.5, 10 mM MgCl2, 40 mM NaCl, 2 mM GSH, 0.01% (w/v) Tween-20 and 0.1 mg/mL BSA.
5 μL of this mix were dispensed, depending on the chosen microtiter plate format, using multi-channel pipettes or a Multidrop® dispenser (Thermo Fisher Scientific, Waltham Mass.) into the wells of a microtiter plate and incubated at room temperature (rt) for 10 min. Chemical compounds under scrutiny in the assay were applied using contact-free acoustic droplet-dispensing (Echo520® Labcyte Inc., Sunnyvale Calif.) from 10 mM compound stocks in 100% DMSO, to a final concentration of 10 μM or in serial dilution series of the required concentration range. Equal amounts of DMSO without any compound were added to positive control samples, followed by an incubation step at rt for 10 min.
The enzymatic reaction was started by the addition of 5 μL of a mix of dNTPs in reaction buffer to a final concentration of 500 μM each. No nucleotide mix was added to negative control samples. The content of the wells was mixed using a VarioTeleshaker™ (Thermo Fisher Scientific, Waltham Mass.) at 1500 rpm for 45 sec after which the microtiter plate was centrifuged at 500×g for 1 min. The samples were incubated for 2 h at rt with humidity control to avoid evaporation. The detection reagents were prepared in a buffer that was composed, such that the enzymatic reaction was terminated due to chelating of Mg-ions and increased ionic strength, containing 50 mM Tris-HCl pH 7.5, 700 mM NaCl, 20 mM EDTA, and 0.01% (w/v) Tween-20. Importantly Eu-cryptate-coupled streptavidin had to be preincubated with a 100-fold molar excess of a random sequence oligonucleotide for 10 min at rt in the dark to block unspecific binding of single stranded RNA to the protein. Subsequently, the blocked streptavidin(-Eu) was mixed with the DNA-probes on ice and kept away from light until use. […]
For orientation: TR-FRET usually uses a lanthanide donor and a delayed reading to cut background.

Assay [2] relates to mitochondrial transcription (7S RNA) in HeLa cells. Description: Quantitative real time-PCR assay of inhibition of mitochondrial transcription (7S RNA) in HeLa cells. Particulars: Homo sapiens, 4 h compound incubation, according to Example 5, read-out: cellular qPCR assay. It counts as cell-based. The protocol: Quantitative real-time PCR (qRT-PCR), based on the TaqMan™ (Thermo Fisher Scientific, Waltham Mass.) technology, was carried out essentially as described in Held et al. (1996). HeLa cells were plated one day before compound treatment in RPMI medium supplemented with 10% Fetal Calf Serum and 2 mM L-glutamine. Cells were incubated with dilution series of compounds or vehicle (DMSO) for 4 h, prior to harvest and extraction of the RNA using the RNeasy Mini Kit (Qiagen, Hilden D), according to the manufacturer's instructions. RNA concentrations were measured spectroscopically, using a NanoDrop-2000 (Thermo Fisher Scientific, Waltham Mass.) and normalized prior to cDNA synthesis, using a ‘High-Capacity cDNA Reverse Transcription Kit’ (Thermo Fisher Scientific, Waltham Mass.). qRT-PCR was carried out using the ‘TaqMan Fast Advance Master Mix’ (Thermo Fisher Scientific, Waltham Mass.) on a 7500 Fast Real-Time PCR machine (Applied Biosystems, Foster City Calif.)
For these measurements, three genes were used to compare the effect of the scrutinized compounds in relation to their concentration. The POLRMT-gene was used to detect potential influences on nuclear transcription. Mitochondrial transcription in vivo was monitored by measurements 7S RNA. The TBP (TATA-box binding protein) gene was employed as the control (housekeeping gene) during qRT-PCR. The short-lived mitochondrial 7S RNA, which is not post-transcriptionally stabilized, allowed us to monitor rapid changes in mitochondrial transcription activity following compound addition. Biological triplicates were analyzed using the comparative CT Method (ΔΔCt) method (Bubner and Baldwin, 2004) and reported as Rq % values (Rq=Relative quantification=2−ΔΔCt).
(In general: Real-time PCR tracks product formation cycle by cycle.)

mitochondrial RNA polymerase (POLRMT), sequence (Q8BKF1 42-1207): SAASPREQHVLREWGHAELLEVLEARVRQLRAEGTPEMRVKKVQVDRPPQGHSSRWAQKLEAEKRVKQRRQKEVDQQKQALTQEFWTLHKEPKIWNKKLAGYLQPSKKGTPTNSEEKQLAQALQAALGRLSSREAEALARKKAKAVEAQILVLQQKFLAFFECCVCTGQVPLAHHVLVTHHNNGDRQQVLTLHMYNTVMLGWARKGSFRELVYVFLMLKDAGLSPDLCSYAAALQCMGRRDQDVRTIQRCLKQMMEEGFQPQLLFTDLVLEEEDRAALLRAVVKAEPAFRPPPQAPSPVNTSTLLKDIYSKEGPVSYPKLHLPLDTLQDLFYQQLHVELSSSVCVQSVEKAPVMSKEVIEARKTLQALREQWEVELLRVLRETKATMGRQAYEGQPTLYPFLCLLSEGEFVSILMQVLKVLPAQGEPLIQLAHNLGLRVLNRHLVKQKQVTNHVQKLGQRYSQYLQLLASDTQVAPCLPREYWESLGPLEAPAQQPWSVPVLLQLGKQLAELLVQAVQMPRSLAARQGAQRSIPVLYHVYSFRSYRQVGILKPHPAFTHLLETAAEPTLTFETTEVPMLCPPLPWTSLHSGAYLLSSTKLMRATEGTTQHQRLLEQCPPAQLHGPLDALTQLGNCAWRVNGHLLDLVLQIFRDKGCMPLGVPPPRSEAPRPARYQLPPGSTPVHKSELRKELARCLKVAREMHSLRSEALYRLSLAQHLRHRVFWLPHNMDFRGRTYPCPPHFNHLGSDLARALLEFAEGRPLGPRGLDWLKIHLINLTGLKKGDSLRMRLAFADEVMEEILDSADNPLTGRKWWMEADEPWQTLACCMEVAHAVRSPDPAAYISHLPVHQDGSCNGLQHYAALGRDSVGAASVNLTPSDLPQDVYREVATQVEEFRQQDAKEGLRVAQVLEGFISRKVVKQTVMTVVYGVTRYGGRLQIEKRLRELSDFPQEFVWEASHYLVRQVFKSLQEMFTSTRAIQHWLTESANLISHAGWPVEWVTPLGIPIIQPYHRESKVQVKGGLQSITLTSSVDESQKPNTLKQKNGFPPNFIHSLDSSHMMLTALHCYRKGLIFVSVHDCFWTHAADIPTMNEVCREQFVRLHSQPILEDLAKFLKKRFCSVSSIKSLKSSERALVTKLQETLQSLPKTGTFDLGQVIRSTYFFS

For the molecule `C[C@@H](Oc1ccc2c(-c3ccc(F)cc3Cl)ccnc2c1)C(=O)N1CCC[C@H](CC(=O)O)C1` [Compound 18, 2-((R)-1-((R)-2-((4-(2-chloro-4-fluorophenyl)quinolin-7-yl)oxy)propanoyl)piperidin-3-yl)acetic acid], the values for the IC50 in assay [1] and in assay [2] were 20 to 100 nM and 50 to 500 nM, respectively.

As to `C[C@@H](Oc1ccc2c(-c3ccccc3Cl)ccnc2c1)C(=O)N1CCCCC1` [Compound 53, (2R)-2-[[4-(2-chlorophenyl)-7-quinolyl]oxy]-1-(1-piperidyl)propan-1-one], the IC50 in assay [1] lay within 100 to 1000 nM; in assay [2] it was 10 to 50 nM. Turning to `C[C@@H](Oc1ccc2c(-c3ccc(F)cc3Cl)ccnc2c1)C(=O)Nc1ccccn1` [Compound 130, (2R)-2-[[4-(2-chloro-4-fluoro-phenyl)-7-quinolyl]oxy]-N-(2-pyridyl)propanamide], the values for the IC50 in assay [1] and in assay [2] were 100 to 1000 nM and 500 to 5000 nM, respectively. Consider `C[C@@H](Oc1ccc2c(-c3ccccc3Cl)ccnc2c1)C(=O)N(C)C` [Compound 88, (2R)-2-[[4-(2-chlorophenyl)-7-quinolyl]oxy]-N,N-dimethyl-propanamide], for which the IC50 in assay [1] lay in the range of 1000 to 10000 nM; in assay [2], 50 to 500 nM. In the case of `Cc1cc(-c2ccccc2C)c2ccc(O[C@H](C)C(=O)N3CCC[C@H](CC(=O)O)C3)cc2n1` [Compound 69, 2-[(3R)-1-[(2R)-2-[[2-methyl-4-(o-tolyl)-7-quinolyl]oxy]propanoyl]-3-piperidyl]acetic acid], the IC50 in assay [1] lay in the range of 100 to 1000 nM; in assay [2] it was 10 to 50 nM.

For `C[C@@H](Oc1ccc2c(-c3c(Cl)cccc3Cl)ccnc2c1)C(=O)N1CCC[C@H](C(=O)O)C1` [Compound 129, (3S)-1-[(2R)-2-[[4-(2,6-dichlorophenyl)-7-quinolyl]oxy]propanoyl]piperidine-3-carboxylic acid], the IC50 is less than 20 nM in assay [1] and less than 10 nM in assay [2]. In the same order, the values of `C[C@@H](Oc1ccc2c(-c3ccc(F)cc3Cl)ccnc2c1)C(=O)N1CCCC2(COC2)C1` [Compound 212, (2R)-2-[[4-(2-chloro-4-fluoro-phenyl)-7-quinolyl]oxy]-1-(2-oxa-8-azaspiro[3.5]nonan-8-yl)propan-1-one] are 100 to 1000 nM and less than 10 nM. In the same order, the values of `C[C@@H](Oc1ccc2c(-c3ccccc3Cl)ccnc2c1)C(=O)N1CCC[C@@H](C(=O)O)C1` [Compound 7, (3R)-1-[(2R)-2-[[4-(2-chlorophenyl)-7-quinolyl]oxy]propanoyl]piperidine-3-carboxylic acid] are less than 20 nM and less than 10 nM.

For the molecule `CNC(=O)C[C@H]1CCCN(C(=O)[C@@H](C)Oc2ccc3c(-c4ccccc4Cl)cc(Cl)nc3c2)C1` [Compound 68, 2-[(3R)-1-[(2R)-2-[[2-chloro-4-(2-chlorophenyl)-7-quinolyl]oxy]propanoyl]-3-piperidyl]-N-methyl-acetamide], the IC50 is 100 to 1000 nM in assay [1] and 50 to 500 nM in assay [2]. The corresponding values for `C[C@@H](Oc1ccc2c(-c3c(Cl)cc(F)cc3Cl)ccnc2c1)C(=O)N1CCC[C@@](C)(C(=O)O)C1` [Compound 188, (3R)-1-[(2R)-2-[[4-(2,6-dichloro-4-fluoro-phenyl)-7-quinolyl]oxy]propanoyl]-3-methyl-piperidine-3-carboxylic acid] are less than 20 nM and 10 to 50 nM. The corresponding values for `C[C@H](Oc1ccc2c(-c3ccccc3Cl)ccnc2c1)C(=O)N1CCC[C@H](C(=O)O)C1` [Compound 78, (3S)-1-[(2S)-2-[[4-(2-chlorophenyl)-7-quinolyl]oxy]propanoyl]piperidine-3-carboxylic acid] are 100 to 1000 nM and 500 to 5000 nM. In the same order, the values of `C[C@@H](Oc1ccc2c(-c3ccc(F)cc3Cl)ccnc2c1)C(=O)N1CC[C@H](CC(=O)O)C1` [Compound 40, 2-[(3R)-1-[(2R)-2-[[4-(2-chloro-4-fluoro-phenyl)-7-quinolyl]oxy]propanoyl]pyrrolidin-3-yl]acetic acid] are 100 to 1000 nM and 50 to 500 nM. For the molecule `Cc1sccc1-c1ccnc2cc(O[C@H](C)C(=O)N3CCC[C@H](CC(=O)O)C3)ccc12` [Compound 79, 2-[(3R)-1-[(2R)-2-[[4-(2-methyl-3-thienyl)-7-quinolyl]oxy]propanoyl]-3-piperidyl]acetic acid], the IC50 in assay [1] was 100 to 1000 nM; in assay [2] it was 50 to 500 nM. The corresponding values for `CC1CCCCN1C(=O)[C@@H](C)Oc1ccc2c(-c3ccc(F)cc3Cl)ccnc2c1` (mixture of isomers) [Compound 200, rac-(2R)-2-[[4-(2-chloro-4-fluoro-phenyl)-7-quinolyl]oxy]-1-(2-methyl-1-piperidyl)propan-1-one] are 20 to 100 nM and less than 10 nM.

In turn, `C[C@@H](Oc1ccc2c(-c3ccccc3Cl)ccnc2c1)C(=O)O` [Compound 103, (2R)-2-[[4-(2-chlorophenyl)-7-quinolyl]oxy]propanoic acid] had an IC50 in assay [1] of 1000 to 10000 nM. For the molecule `Cc1cccc(C)c1-c1ccnc2cc(O[C@H](C)C(=O)N3CCCC(CS(N)(=O)=O)C3)ccc12` (mixture of isomers) [Compound 190, [1-[rac-(2R)-2-[[4-(2,6-dimethylphenyl)-7-quinolyl]oxy]propanoyl]-3-piperidyl]methanesulfonamide], the IC50 in assay [1] is less than 20 nM. Regarding `COC(=O)C[C@@H]1CCN(C(=O)[C@@H](C)Oc2ccc3c(-c4ccc(F)cc4Cl)ccnc3c2)C1` [Compound 67, methyl 2-[(3S)-1-[(2R)-2-[[4-(2-chloro-4-fluoro-phenyl)-7-quinolyl]oxy]propanoyl]pyrrolidin-3-yl]acetate], the IC50 in assay [1] was in the range of 100 to 1000 nM. Still for that read-out and setting: the same measure for `COC(=O)C1CC(NC(=O)[C@@H](C)Oc2ccc3c(-c4ccc(F)cc4Cl)ccnc3c2)C1` (stereo partly drawn) [Compound 54, methyl 3-[[(2R)-2-[[4-(2-chloro-4-fluoro-phenyl)-7-quinolyl]oxy]propanoyl]amino]cyclobutanecarboxylate]: 100 to 1000 nM; for `C[C@@H](Oc1ccc2c(-c3ccc(F)cc3Cl)cc(Cl)nc2c1)C(=O)O` [Compound 91, (2R)-2-[[2-chloro-4-(2-chloro-4-fluoro-phenyl)-7-quinolyl]oxy]propanoic acid]: 1000 to 10000 nM; for `C[C@@H](Oc1ccc2c(-c3ccccc3C#N)ccnc2c1)C(=O)N1CCC[C@H](CC(=O)O)C1` [Compound 143, 2-[(3R)-1-[(2R)-2-[[4-(2-cyanophenyl)-7-quinolyl]oxy]propanoyl]-3-piperidyl]acetic acid]: 100 to 1000 nM.
